Assays:
[1] = target: T1, 15-PGDH/HPGD (Homo sapiens, UniProt P15428); test: hPGDH inhibitor screening biochemical assay; settings: 10 nM enzyme, 15 μM PGE2, 0.25 mM NAD, fluorescence ex/em 340/485 nm
T1 construct: purchased R&D System 5660-DH
T1 sequence (P15428 1-266): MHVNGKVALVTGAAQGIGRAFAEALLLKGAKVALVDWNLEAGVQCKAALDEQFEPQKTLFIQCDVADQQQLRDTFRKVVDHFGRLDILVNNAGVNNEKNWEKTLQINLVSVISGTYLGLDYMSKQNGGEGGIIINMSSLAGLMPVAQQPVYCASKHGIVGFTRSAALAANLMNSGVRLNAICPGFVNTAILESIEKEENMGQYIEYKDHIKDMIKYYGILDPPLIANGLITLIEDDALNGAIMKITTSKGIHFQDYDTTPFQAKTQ
How it was run: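 Recombinant human 15-PGDH (10 nM) was preincubated with compound for 10 min at 37° C in 50 mM Tris-HCl pH 7.5 with 0.01% Tween 20. Reaction with 15 μM PGE2 and 0.25 mM NAD+ ran 10 min at room temperature, read by fluorescence at ex/em 340/485 nm. IC50 was derived from 10-point curves, relative to 1% DMSO.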

[2] = target: T2, 15-PGDH (Homo sapiens, UniProt P15428); test: A549 cell based assay: PGE2 in supernatant after IL-1β (HTRF); settings: A549 cells, fold induction of PGE2, IL-1β plus test article versus IL-1β only
T2 construct: 15-PGDH is highly expressed in resting human lung adenocarcinoma cells (A549); endogenous in cells; host or cells: A549
T2 sequence (P15428 1-266): T1 sequence (P15428 1-266)
Description: Cell Based Assay: 15-PGDH is highly expressed in resting human lung adenocarcinoma cells (A549) (Tong et al., 2006), and this cell line was used to assess 15-PGDH inhibition by MF-300Na in vitro.
In this assay, A549 cells are treated with interleukin (IL) 1β, which induces the expression of cycloxygenase-2 and the synthesis of PGE2 (Tong et al., 2006). In the studies evaluating test articles, thirty thousand A549 cells were seeded in 100 μL F12K completed media and incubated for 24 hours at 37° C. with 5% CO2 before being serum-starved for 24 hours. On the day of the experiment, buffer was changed to complete medium, and cells were incubated for 30 minutes with compounds prior to the addition of IL-1β (final concentration of 0.1-0.25 ng/mL) overnight at 37° C. with 5% CO2. Each concentration was run in triplicate. […] The PGE2 in the supernatant was detected and quantified using a Cisbio HTRF technology (Homogeneous Time-Resolved Fluorescence) kit (62P2APEG-62P2APEH) according to the manufacturer's recommendations, quantifying the fold induction of PGE2 of cells treated with IL-1β plus test article, versus treatment with IL-1β only.

Compound | IC50 [1] [nM] | PGE2 - HTRF over IL-β induction at 0.001 μM [2] | PGE2 - HTRF over IL-β induction at 0.01 μM [2] | PGE2 - HTRF over IL-β induction at 0.1 μM [2] | PGE2 - HTRF over IL-β induction at 1 μM [2]
CN(C)c1nc2ccc(-n3ccc4cc(C(=O)N5CCC(F)(F)CC5)cnc43)cn2n1 [Compound B-102] | 100 to 1000 | 0.95 | 1.08 | 3.09 | 5.02
CNc1nc2ccc(-n3ccc4cc(C(=O)N5CCC(F)(F)CC5)cnc43)cn2n1 [Compound B-89] | < 100 | 1.57 | 3.31 | 3 | 5.13
O=C(c1cnc2c(ccn2-c2ccc(N3CCOC3=O)nc2)c1)N1CCC[C@@H](C(F)(F)F)C1 [Compound B-81] | 100 to 1000 | 0.51 | 1.08 | 2.21 | 1.92
CCC1CCCN(C(=O)c2cnc3c(ccn3-c3cncc(NC(=O)OC)c3)c2)C1 (stereo in doubt) [Compound B-70, methyl(S)-(5-(5-(3-ethylpiperidine-1-carbonyl)-1H-pyrrolo[2,3-b]pyridin-1-yl)pyridin-3-yl)carbamate] | < 100 | 3.59 | 4.44 | 4.8 | 4.34

Second part, the compound after the results:

IC50 [1] [nM] | PGE2 - HTRF over IL-β induction at 0.001 μM [2] | PGE2 - HTRF over IL-β induction at 0.01 μM [2] | PGE2 - HTRF over IL-β induction at 0.1 μM [2] | PGE2 - HTRF over IL-β induction at 1 μM [2] | Compound
< 100 | 2.17 | 3.03 | 3.96 | 3.96 | O=C(c1cnc2c(ccn2-c2ccc(-c3nnc(C4CC4)[nH]3)cc2)c1)N1CCC(F)(F)CC1 [Compound B-72]
< 100 | 2.36 | 2.83 | 2.86 | 2.4 | O=C(c1cnc2c(ccn2-c2ccc(N3CCOC3=O)nc2)c1)N1CCC[C@H](C(F)(F)F)C1 [Compound B-80]
< 100 | 2.14 | 3.77 | 3.25 | 4.67 | CC(C)OC(=O)Nc1cncc(-n2ccc3cc(C(=O)N4CCC(F)(F)CC4)cnc32)c1 [Compound B-88]
< 100 | 0.34 | 1.02 | 2.68 | 4.46 | O=C(Nc1cncc(-n2ccc3cc(C(=O)N4CCC(F)(F)CC4)cnc32)c1)C1CCOCC1 [Compound B-232]
< 100 | 1.4 | 2.64 | 2.84 | 4.39 | CCC1CCCN(C(=O)c2cnc3c(ccn3-c3cncc(NC(=O)OC)c3)c2)C1 (stereo not drawn) [Compound B-83]
